From patent US6737383B1, “Herbicidal oxadiazolidines” (priority 1999, dated 2004)

Columns and labels:
blackgrass = test: Test B pre/postemergence blackgrass; type: in vivo, Alopecurus myosuroides; settings: for Blackgrass plant response rating: scale of 0 to 10 where 0 is no effect and 10 is complete control
Procedure, shortened: (§1)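 Herbicidal effect was estimated by eye on a ten-point control scale after plants spent twelve to sixteen days in a greenhouse following soil or foliar treatment. Foliar sprays targeted plants at one to four leaves; all doses were formulated in a non-phytotoxic solvent with surfactant.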

wild oat = test: Test B pre/postemergence wild oat; type: in vivo, Avena fatua; settings: for Wild oats plant response rating: scale of 0 to 10 where 0 is no effect and 10 is complete control
Procedure, shortened: as §1

smallflower flatsedge = test: Test B flood test smallflower flatsedge; type: in vivo, Cyperus difformis; settings: Pre-emergence
Procedure, shortened: (§2)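 Flood test on plants grown to the 2-leaf stage; treated plants kept in greenhouse twelve to sixteen days, then visually rated against controls on a 0 (no effect) to 10 (complete control) scale.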

duck salad = test: Test B flood test duck salad; type: in vivo, Heteranthera limosa; settings: Pre-emergence
Procedure, shortened: as §2

giant foxtail = test: Test B pre/postemergence giant foxtail; type: in vivo, Setaria faberii; settings: for Giant foxtail plant response rating: scale of 0 to 10 where 0 is no effect and 10 is complete control
Procedure, shortened: as §1

soybean = test: Test B pre/postemergence soybean; type: in vivo, Glycine max; settings: for Soybean plant response rating: scale of 0 to 10 where 0 is no effect and 10 is complete control
Procedure, shortened: as §1

morningglory = test: Test B pre/postemergence morningglory; type: in vivo, Ipomoea hederacea; settings: for Morningglory plant response rating: scale of 0 to 10 where 0 is no effect and 10 is complete control
Procedure, shortened: as §1

wheat = test: Test B pre/postemergence wheat; type: in vivo, Triticum aestivum; settings: for Wheat plant response rating: scale of 0 to 10 where 0 is no effect and 10 is complete control
Procedure, shortened: as §1

purple nutsedge = test: Test B pre/postemergence purple nutsedge; type: in vivo, Cyperus rotundus; settings: for Nutsedge plant response rating: scale of 0 to 10 where 0 is no effect and 10 is complete control
Procedure, shortened: as §1

rape = test: Test B pre/postemergence rape; type: in vivo, Brassica napus; settings: for Rape plant response rating: scale of 0 to 10 where 0 is no effect and 10 is complete control
Procedure, shortened: as §1

surinam grass = test: Test B pre/postemergence surinam grass; type: in vivo, Brachiaria decumbens; settings: for B. signalgrass plant response rating: scale of 0 to 10 where 0 is no effect and 10 is complete control
Procedure, shortened: as §1

crabgrass = test: Test B pre/postemergence crabgrass; type: in vivo, Digitaria sanguinalis; settings: for Crabgrass plant response rating: scale of 0 to 10 where 0 is no effect and 10 is complete control
Procedure, shortened: as §1

bedstraw = test: Test B pre/postemergence bedstraw; type: in vivo, Galium aparine; settings: for Bedstraw plant response rating: scale of 0 to 10 where 0 is no effect and 10 is complete control
Procedure, shortened: as §1

corn = test: Test B pre/postemergence corn; type: in vivo, Zea mays; settings: for Corn plant response rating: scale of 0 to 10 where 0 is no effect and 10 is complete control
Procedure, shortened: as §1

rice = test: Test B flood test rice; type: in vivo, Oryza sativa; settings: Pre-emergence
Procedure, shortened: as §2

velvetleaf = test: Test B pre/postemergence velvetleaf; type: in vivo, Abutilon theophrasti; settings: for Velvetleaf plant response rating: scale of 0 to 10 where 0 is no effect and 10 is complete control
Procedure, shortened: as §1

[1] = Postemergence, Rate 125 g/ha, scale 0 to 10, 0 is no effect, 10 is complete control
[2] = Postemergence, Rate 250 g/ha, scale 0 to 10, 0 is no effect, 10 is complete control
[3] = Preemergence, Rate 62 g/ha, scale 0 to 10 (0 no effect, 10 complete control)
[4] = Rate 500 g/ha, Postemergence, scale 0 to 10, 0 no effect, 10 complete control
[5] = Rate 62 g/ha, flood test species, visual evaluation after twelve to sixteen days
[6] = Rate 125 g/ha, flood test species, scale 0 to 10 where 0 is no effect and 10 is complete control
[7] = Rate 250 g/ha, flood-test species, scale 0 to 10, 0 is no effect, 10 is complete control
[8] = Rate 500 g/ha, flood test species, scale 0 to 10 (0 no effect, 10 complete control)

## CC(C)N(C(=O)n1oc(=O)n(C)c1=O)c1ccc(F)cc1F [Compound 368]
blackgrass; [1]
  Plant response rating, Blackgrass: 7
blackgrass; [2]
  Plant response rating, Blackgrass: 8
blackgrass; [3]
  Plant response rating, Blackgrass: 8
blackgrass; Preemergence, Rate 125 g/ha
  Blackgrass plant response rating (0 to 10 scale): 9
blackgrass; Preemergence, Rate 250 g/ha
  Blackgrass plant response rating: 10
blackgrass; Preemergence, Rate 500 g/ha
  Blackgrass plant response rating: 10
blackgrass; Rate 62 g/ha, Postemergence
  Blackgrass plant response rating: 7
blackgrass; [4]
  Plant response rating, Blackgrass: 8
Wild oat; [1]
  Plant response rating, Wild oats: 0
Wild oat; [2]
  Plant response rating, Wild oats: 3
Wild oat; [3]
  Plant response rating, Wild oats: 4
Wild oat; Preemergence, Rate 125 g/ha
  Wild oats plant response rating (0 to 10 scale): 9
Wild oat; Preemergence, Rate 250 g/ha
  Wild oats plant response rating: 10
Wild oat; Preemergence, Rate 500 g/ha
  Wild oats plant response rating: 10
Wild oat; Rate 62 g/ha, Postemergence
  Wild oats plant response rating: 0
Wild oat; [4]
  Plant response rating, Wild oats: 5
Smallflower flatsedge; [5]
  Plant response rating, S. Flatsedge (0 to 10 scale, 0 is no effect, 10 is complete control): 0
Smallflower flatsedge; [6]
  S. Flatsedge plant response rating: 0
Smallflower flatsedge; [7]
  S. Flatsedge plant response rating: 2
Smallflower flatsedge; [8]
  S. Flatsedge plant response rating: 4
Duck salad; [5]
  Plant response rating, Ducksalad (0 to 10 scale, 0 is no effect, 10 is complete control): 0
Duck salad; [6]
  Ducksalad plant response rating: 0
Duck salad; [7]
  Ducksalad plant response rating: 0
Duck salad; [8]
  Ducksalad plant response rating: 0
Giant foxtail; [1]
  Plant response rating, Giant foxtail: 8
Giant foxtail; [2]
  Plant response rating, Giant foxtail: 9
Giant foxtail; [3]
  Plant response rating, Giant foxtail: 10
Giant foxtail; Preemergence, Rate 125 g/ha
  Giant foxtail plant response rating (0 to 10 scale): 10
Giant foxtail; Preemergence, Rate 250 g/ha
  Giant foxtail plant response rating: 10
Giant foxtail; Preemergence, Rate 500 g/ha
  Giant foxtail plant response rating: 10
Giant foxtail; Rate 62 g/ha, Postemergence
  Giant foxtail plant response rating: 8
Giant foxtail; [4]
  Plant response rating, Giant foxtail: 9
soybean; [1]
  Plant response rating, Soybean: 5
soybean; [2]
  Plant response rating, Soybean: 5
soybean; [3]
  Plant response rating, Soybean: 0
soybean; Preemergence, Rate 125 g/ha
  Soybean plant response rating (0 to 10 scale): 2
soybean; Preemergence, Rate 250 g/ha
  Soybean plant response rating: 7
soybean; Preemergence, Rate 500 g/ha
  Soybean plant response rating: 8
soybean; Rate 62 g/ha, Postemergence
  Soybean plant response rating: 4
soybean; [4]
  Plant response rating, Soybean: 5
morningglory; [1]
  Plant response rating, Morningglory: 4
morningglory; [2]
  Plant response rating, Morningglory: 5
morningglory; [3]
  Plant response rating, Morningglory: 0
morningglory; Preemergence, Rate 125 g/ha
  Morningglory plant response rating (0 to 10 scale): 1
morningglory; Preemergence, Rate 250 g/ha
  Morningglory plant response rating: 3
morningglory; Preemergence, Rate 500 g/ha
  Morningglory plant response rating: 5
morningglory; Rate 62 g/ha, Postemergence
  Morningglory plant response rating: 2
morningglory; [4]
  Plant response rating, Morningglory: 7
wheat; [1]
  Plant response rating, Wheat: 3
wheat; [2]
  Plant response rating, Wheat: 4
wheat; [3]
  Plant response rating, Wheat: 0
wheat; Preemergence, Rate 125 g/ha
  Wheat plant response rating (0 to 10 scale): 4
wheat; Preemergence, Rate 250 g/ha
  Wheat plant response rating: 8
wheat; Preemergence, Rate 500 g/ha
  Wheat plant response rating: 10
wheat; Rate 62 g/ha, Postemergence
  Wheat plant response rating: 0
wheat; [4]
  Plant response rating, Wheat: 6
Purple nutsedge; [1]
  Plant response rating, Nutsedge: 0
Purple nutsedge; [2]
  Plant response rating, Nutsedge: 0
Purple nutsedge; [3]
  Plant response rating, Nutsedge: 0
Purple nutsedge; Preemergence, Rate 125 g/ha
  Nutsedge plant response rating (0 to 10 scale): 2
Purple nutsedge; Preemergence, Rate 250 g/ha
  Nutsedge plant response rating: 10
Purple nutsedge; Preemergence, Rate 500 g/ha
  Nutsedge plant response rating: 10
Purple nutsedge; Rate 62 g/ha, Postemergence
  Nutsedge plant response rating: 0
Purple nutsedge; [4]
  Plant response rating, Nutsedge: 0
rape; [1]
  Plant response rating, Rape: 0
rape; [2]
  Plant response rating, Rape: 2
rape; [3]
  Plant response rating, Rape: 0
rape; Preemergence, Rate 125 g/ha
  Rape plant response rating (0 to 10 scale): 0
rape; Preemergence, Rate 250 g/ha
  Rape plant response rating: 6
rape; Preemergence, Rate 500 g/ha
  Rape plant response rating: 10
rape; Rate 62 g/ha, Postemergence
  Rape plant response rating: 0
rape; [4]
  Plant response rating, Rape: 5
Surinam grass; [1]
  Plant response rating, B. signalgrass: 5
Surinam grass; [2]
  Plant response rating, B. signalgrass: 6
Surinam grass; [3]
  Plant response rating, B. signalgrass: 1
Surinam grass; Preemergence, Rate 125 g/ha
  B. signalgrass plant response rating (0 to 10 scale, 0 is no effect, 10 is complete control): 6
Surinam grass; Preemergence, Rate 250 g/ha
  B. signalgrass plant response rating: 8
Surinam grass; Preemergence, Rate 500 g/ha
  B. signalgrass plant response rating: 8
Surinam grass; Rate 62 g/ha, Postemergence
  B. signalgrass plant response rating: 0
Surinam grass; [4]
  Plant response rating, B. signalgrass: 7
crabgrass; [1]
  Plant response rating, Crabgrass: 8
crabgrass; [2]
  Plant response rating, Crabgrass: 8
crabgrass; [3]
  Plant response rating, Crabgrass: 10
crabgrass; Preemergence, Rate 125 g/ha
  Crabgrass plant response rating (0 to 10 scale): 10
crabgrass; Preemergence, Rate 250 g/ha
  Crabgrass plant response rating: 10
crabgrass; Preemergence, Rate 500 g/ha
  Crabgrass plant response rating: 10
crabgrass; Rate 62 g/ha, Postemergence
  Crabgrass plant response rating: 6
crabgrass; [4]
  Plant response rating, Crabgrass: 8
bedstraw; [2]
  Plant response rating, Bedstraw: 4
bedstraw; [3]
  Plant response rating, Bedstraw: 0
bedstraw; Preemergence, Rate 125 g/ha
  Bedstraw plant response rating (0 to 10 scale): 2
bedstraw; Preemergence, Rate 250 g/ha
  Bedstraw plant response rating: 10
bedstraw; Preemergence, Rate 500 g/ha
  Bedstraw plant response rating: 10
bedstraw; Rate 62 g/ha, Postemergence
  Bedstraw plant response rating: 0
corn; [1]
  Plant response rating, Corn: 5
corn; [2]
  Plant response rating, Corn: 6
corn; [3]
  Plant response rating, Corn: 3
corn; Preemergence, Rate 125 g/ha
  Corn plant response rating (0 to 10 scale): 6
corn; Preemergence, Rate 250 g/ha
  Corn plant response rating: 7
corn; Preemergence, Rate 500 g/ha
  Corn plant response rating: 10
corn; Rate 62 g/ha, Postemergence
  Corn plant response rating: 0
corn; [4]
  Plant response rating, Corn: 7
rice; [5]
  Plant response rating, Rice (0 to 10 scale, 0 is no effect, 10 is complete control): 0
rice; [6]
  Rice plant response rating: 0
rice; [7]
  Rice plant response rating: 0
rice; [8]
  Rice plant response rating: 5
velvetleaf; [1]
  Plant response rating, Velvetleaf: 0
velvetleaf; [2]
  Plant response rating, Velvetleaf: 3
velvetleaf; [3]
  Plant response rating, Velvetleaf: 4
velvetleaf; Preemergence, Rate 125 g/ha
  Velvetleaf plant response rating (0 to 10 scale): 7
velvetleaf; Preemergence, Rate 250 g/ha
  Velvetleaf plant response rating: 10
velvetleaf; Preemergence, Rate 500 g/ha
  Velvetleaf plant response rating: 10
velvetleaf; Rate 62 g/ha, Postemergence
  Velvetleaf plant response rating: 0
velvetleaf; [4]
  Plant response rating, Velvetleaf: 7
